What was measured:
Format in all cases: biochemical
[1] = Interaction with the stable radical DPPH; conditions: tested at 100 μM; reducing activity
Protocol: Interaction of the nitrone with the Stable Radical 1,1-diphenyl-picrylhydrazyl (DPPH) To a solution of DPPH in absolute ethanol the appropriate volume of the compounds (0.1 mM final concentrations) dissolved in DMSO was added. The absorbance was recorded at 517 nm after 20 and 60 min at room temperature (Table 1).
3.1. Antioxidant activity of QNs using radical DPPH. […] This purple colour generally disappears in the presence of an antioxidant due to the reduction of the DPPH radical by single electron transfer (SET) from the antioxidant converted it to colourless/bleached product. […] In this assay, we measured the initial absorbance of DPPH and the absorbance once the potential antioxidant was added. The antioxidant activity was expressed as the percentage of reducing activity.

[2] = Quantitative nitrite assay for NO release (Griess); conditions: 100 μM, L-cysteine, pH 7.4, 60 min 37° C.
Protocol: Quantitative nitrite assays for NO release. A solution of nitrone 23 (final concentration 100 μM) (20 μL), dissolved in DMSO, was added to 2 mL of 50 mM phosphate buffer (pH=7.4) containing the appropriate amount of thiol cofactor 1 mM (L-cysteine). After 60 min at 37° C., 1 mL of the reaction mixture was treated with 250 μL of the Griess reagent (4 g sulfanilamide, 0.2 g N-naphthyl-ethyldiamine dihydrochloride, 10 mL of 85% phosphoric acid in distilled water, final volume 100 mL). After the mixture stood for 10 min at rt, absorbance was recorded at 540 nm. Sodium nitroprusside (SNP) was used as standard reference compound (100 μM). The yield in nitrite (NO2^− release) for nitrone 23, as function of L-cysteine (mM concentration) is given in Table 1, expressed as % NO2^− (mol/mol).
QNs were tested in vitro for their ability to release NO by the action of a thiol co-factor. NO release with simultaneous production of cyanide occurs by action of reducing agents like thiols. L-cysteine was used as a co-factor in this in vitro biological test. […] The screened compounds (final concentration 100 μM) was tested for its ability to release NO when dissolved in a phosphate buffer containing L-cysteine (pH 7.4). Air was oxidizing the initially formed NO, transforming it to nitrites, which were detected by the Griess reaction. Virtually, no formation of NO2^− was detectable in the absence of L-cysteine for the nitrones tested.

[3] = Superoxide radical scavenging (hypoxanthine/xanthine oxidase system); conditions: tested at 100 μM (0.1 mM)
Source text: 3.7. Superoxide radical scavenging activity. Superoxide anion radical (O2⋅−) is less toxic than hydroxyl radical, but still one of the most known harmful toxic ROS. In physiological conditions, superoxide dismutase catalyzes its conversion to H2O2, which is the precursor for the formation of hydroxyl radicals in the presence of iron ions.43 Superoxide anion radicals O2⋅− and H2O2 are ROS produced in vivo through a one-electron reduction process of O2. The evaluation of superoxide anion radical scavenging activity can be determined using assays involving non-enzymatic or enzymatic production of superoxide anions. In this assay, superoxide anion radicals were generated by a hypoxanthine and xanthine oxidase reaction system, and the O2⋅− scavenging activity (%) has been measured spectrophotometrically.

[4] = Inhibition of linoleic acid peroxidation (AAPH, ILPO); conditions: tested at 100 μM
Protocol: Inhibition of Linoleic Acid Peroxidation.^32 For initiating the free radical, 2,2′-azobis(2-amidinopropane) dihydrochloride (AAPH) is used. The final solution in the UV cuvette consisted of ten microliters of the 16 mM linoleate sodium dispersion 0.93 mL of 0.05 M phosphate buffer, pH 7.4, thermostatted at 37° C. 50 μL of 40 mM AAPH solution was added as a free radical initiator at 37° C. under air and 10 μL of the tested compounds. The oxidation of linoleic acid sodium salt results a conjugated diene hydroperoxide. The reaction is monitored at 234 nm (Table 1).
3.3. Anti-lipid peroxidation activity of QNs. The water-soluble azo compound 2,2′-azobis(2-amidinopropane) dihydrochloride (AAPH) has been extensively used as a clean and controllable source of thermally produced alkyl peroxyl free radicals through spontaneous thermal decomposition. […] In the AAPH assay to determine the inhibition of the lipid peroxidation (ILPO), the highly reactive alkylperoxyl radicals are intercepted mainly by a hydrogen atom transfer from the antioxidant. As shown, QN23 presented limited value, where QNs 19, 22 and 24 presented very high values (Table 3).

soybean lipoxygenase LOX = target: T1, soybean lipoxygenase LOX (Glycine max, UniProt P08170); assay: Lipoxygenase (LOX) inhibition, UV-based enzyme assay; conditions: for LOX (%): tested at 100 μM
T1 sequence (P08170 1-839): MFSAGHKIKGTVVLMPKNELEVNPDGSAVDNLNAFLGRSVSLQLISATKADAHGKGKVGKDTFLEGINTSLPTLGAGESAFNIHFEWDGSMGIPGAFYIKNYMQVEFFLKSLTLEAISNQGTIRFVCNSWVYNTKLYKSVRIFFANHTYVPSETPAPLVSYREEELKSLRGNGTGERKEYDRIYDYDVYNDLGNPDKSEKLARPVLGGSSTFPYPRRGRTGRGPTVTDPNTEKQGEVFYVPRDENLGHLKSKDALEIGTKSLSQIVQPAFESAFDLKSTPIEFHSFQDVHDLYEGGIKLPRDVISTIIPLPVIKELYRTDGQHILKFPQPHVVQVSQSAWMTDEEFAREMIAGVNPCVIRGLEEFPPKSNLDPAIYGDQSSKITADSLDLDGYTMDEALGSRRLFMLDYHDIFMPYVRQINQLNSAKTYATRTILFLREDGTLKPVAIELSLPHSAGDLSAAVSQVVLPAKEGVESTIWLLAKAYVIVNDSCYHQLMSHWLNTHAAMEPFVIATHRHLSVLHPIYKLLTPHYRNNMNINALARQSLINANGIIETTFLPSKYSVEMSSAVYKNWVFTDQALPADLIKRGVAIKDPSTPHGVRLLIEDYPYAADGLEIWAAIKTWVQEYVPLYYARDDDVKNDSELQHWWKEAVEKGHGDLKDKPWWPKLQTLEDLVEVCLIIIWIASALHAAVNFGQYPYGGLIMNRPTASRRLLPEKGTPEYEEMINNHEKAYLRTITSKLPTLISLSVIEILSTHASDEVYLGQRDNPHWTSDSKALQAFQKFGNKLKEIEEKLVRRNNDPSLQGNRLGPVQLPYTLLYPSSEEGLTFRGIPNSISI
Source text: 3.5. Lipoxygenase inhibition of QNs. […] A key strategy to prevent potential damage to cellular compounds such as DNA, proteins and lipids is to reduce the free radical load. […] LOX index, a novel predictive biochemical marker for coronary heart disease and stroke. […] Thus, LOX inhibitors may provide multifactorial protection against ischemic injury. […] Most of the LOX inhibitors are often antioxidants or free radical scavengers.

SMILES | IC50 (soybean lipoxygenase LOX) [µM] | DPPH (%) [1] | NO2− (%) (mol/mol) [2] | O2*− (%) [3] | ILPO (%) / AAPH (%) [4] | LOX (%) (soybean lipoxygenase LOX)
CC(C)(C)/[N+]([O-])=C/c1ccc(S(=O)(=O)O)cc1S(=O)(=O)O [Compound 2, sodium (Z)-4-((tert-butyloxidoazanylidene)methyl)benzene-1,3-disulfonate, reference compound] | 57.5 | no | 1 % (mol/mol) | no activity and no | no | 
CC(C)(C)/[N+]([O-])=C/c1cc2ccccc2nc1Cl [Compound 18, (Z)—N-t-Butyl-1-(2-chloroquinolin-3-yl)methanimine oxide] |  | 7% | 7.5 % (mol/mol) | 16% | no | 
COc1ccc2nc(Cl)c(/C=[N+](/C)[O-])cc2c1 [Compound 22, (Z)-1-(2-Chloro-6-methoxyquinolin-3-yl)-N-methylmethanimine oxide] |  | no | 11 % (mol/mol) | 29% | 100% | 26
CC(C)(C)/[N+]([O-])=C/c1cc2ccccc2[nH]c1=O [Compound 19, (Z)—N-tert-Butyl-1-(2-oxo-1,2-dihydroquinolin-3-yl)methanimine oxide] | 36.5 | no |  | 23% | 100% | 
COc1ccc2nc(Cl)c(/C=[N+](\[O-])C(C)(C)C)cc2c1 [Compound 23, (Z)—N-tert-Butyl-1-(2-chloro-6-methoxyquinolin-3-yl)methanimine oxide] |  | 4% | 3 % (mol/mol) | 5% | 22% | 29

More lines, main results first:

IC50 (soybean lipoxygenase LOX) [µM] | SMILES | DPPH (%) [1] | NO2− (%) (mol/mol) [2] | O2*− (%) [3] | ILPO (%) / AAPH (%) [4] | LOX (%) (soybean lipoxygenase LOX)
7.6 | COc1ccc2nc(Cl)c(C=O)cc2c1 [Compound 32, 2-chloro-6-methoxyquinoline-3-carbaldehyde, reference compound] | 1% | 2.5 % (mol/mol) | 23% | 25% | 
100 | COc1ccc2nc(Cl)c(/C=[N+](\[O-])Cc3ccccc3)cc2c1 [Compound 24, (Z)—N-Benzyl-1-(2-chloro-6-methoxyquinolin-3-yl)methanimine oxide] | 3% | 12.5 % (mol/mol) | 12.5% | 100% | 

— patent publication US12102631B2, “Quinolylnitrones for the treatment and prevention of a cerebral stroke or ischaemia” (ISQUAEMIA BIOTECH, S.L., priority 2018, dated 2024)
